Measured values as given in patent US4594190A, “Quaternary salts of dibenzo[1,4]diazepinones, pyrido-[1,4]benzodiazepinones, pyrido[1,5]benzodiazepinones with antiulcer, antisecretory, spasmolytic and antimusarinic activities” (priority 1983, dated 1986).

Columns and labels:
gastric acid secretion = assay: Gastric acid secretion in the pylorus ligated rat (antisecretory activity); assay type: in vivo, rat (male Sprague-Dawley); conditions: 4 hours
Method: GASTRIC ACID SECRETION IN THE PYLORUS LIGATED RAT
Male Sprague-Dawley rats weighing 150±5 g fasting since 48 hours were used. Pylorus ligation was performed for 4 hours. The products under examination were administered by the oral route immediately after the ligation.

in vivo = conditions: mouse, oral, Swiss mice, 14 days observation
Method: The acute toxicity was determined by administering by oral route the substances under exam to Swiss mice, average weight 20±2 g. The observation period was 14 days. 10 Animals were used for each assayed dose.

[1] = system: carbachole-induced salivation; assay: Carbachole salivation in the rat; assay type: in vivo, rat (male Sprague-Dawley); conditions: 62.5 mg/kg p.o., one hour before carbachole 1 mg/kg i.p.
Method: CARBACHOLE SALIVATION IN THE RAT
The method cited by R. Turner: "Parasympatholytic Agents" in R. Turner "Screening Methods in Pharmacology" pag. […] Academic Press. […] Male Sprague-Dawley rats, mean weight 150±5 g, fasting since 24 hours, were used.
The salivation was induced by the intraperitoneal administration of 1 mg/kg of carbachole. The products under exam were administered orally one hour before the cholinergic stimulus.

SMILES | % Antisecretory activity (gastric acid secretion; 6.25 mg/kg p.o.) | % Antisecretory activity (gastric acid secretion; 12.5 mg/kg p.o.) | % Antisecretory activity (gastric acid secretion; 25 mg/kg p.o.) | LD50 at 336 h (in vivo) | Salivation by carbachol- protection % [1]
CC(C)(C)C(=O)OC[N+]1(C)CCC(C(=O)N2c3ccccc3C(=O)Nc3cccnc32)CC1 (stereo not shown) [Compound 15] | 9.6% | 27.7% | 41.8% | > 500 mg/kg | 10%
C[N+]1(C)CC[N+](C)(CC(=O)N2c3ccccc3C(=O)Nc3cccnc32)CC1 [Compound 2, 11-[2-(4-Methylpiperazin-1-yl)acetyl]-5,11-dihydro-6H-pyrido[2,3-b][1,4]benzodiazepin-6-one N^1,4 bisiodomethylate] | 10.3% | 15.1% | 20.4% | > 500 mg/kg | 30%
C[N+]1(CC(=O)N2c3ccccc3C(=O)Nc3cccnc32)CCCCC1 [Compound 4, 11-[2-(Piperidin-1-yl)acetyl]-5,11-dihydro-6H-pyrido[2,3-b][1,4]benzodiazepin-6-one iodomethylate] | 22.7% | 48.1% | 70.3% | > 500 mg/kg | 70%
C[N+]1(CCC(=O)N2c3ccccc3C(=O)Nc3cccnc32)CCCCCC1 [Compound 13] | 19.2% | 47.5% | 69.6% | > 500 mg/kg | 30%
C[N+](C)(C)CC(=O)N1c2ccccc2C(=O)Nc2cccnc21 [Compound 3, 11-(2-Dimethylaminoacetyl)-5,11-dihydro-6H-pyrido-[2,3-b][1,4]-benzodiazepin-6-one iodomethylate] | 6.0% | 14.3% | 35.9% | < 500 mg/kg | 0%
